Earlier results as cited in patent publication US5366983A, “Use of quaternary ammonium compounds to remove salmonella contamination from meat products” (The Board of Trustees of The University of Arkansas, priority 1992, dated 1994).

Key:
[1] = tested on: Staphylococcus aureus ATCC 29213; settings: S. aureus; cited from earlier work
[2] = tested on: Escherichia coli ATCC 25922; settings: E. coli; cited from earlier work

CC1(C)S[C@@H]2[C@H](NC(=O)[C@H](N)c3ccccc3)C(=O)N2[C@H]1C(=O)O [ampicillin]
acceptable MIC by NCCLS [1]: 0.5 to 2 µg/mL
acceptable MIC by NCCLS [2]: 2 to 8 µg/mL
